Values of other authors in paper PMC6986806 (Nature chemical biology, 2020).

Test system: GluN1/GluN2D

SMILES: COc1ccc(OCC2c3cc(OC)c(OC)cc3CCN2C(=O)c2cccc(Cl)c2)cc1 (stereo not shown) [CIQ]
- effect on GluN1/GluN2D unitary current: no effect
